Measurements from ChEMBL document CHEMBL4052756, “α-Pyrone derivatives with cytotoxic activities, from the endophytic fungus Phoma sp. YN02-P-3” (Bioorg Med Chem Lett, 2017).

Experiments:
Type in all cases: functional, cell-based
HCT-116 = test: Cytotoxic activity against human HCT116 cells
HL-60 = test: Cytotoxic activity against human HL60 cells
PC-3 = test: Cytotoxic activity against human PC3 cells

| SMILES | IC50 (HCT-116) [µM] | IC50 (HL-60) [µM] | IC50 (PC-3) [µM] |
| --- | --- | --- | --- |
| COc1c(C)c(/C=C/C(=O)O)oc(=O)c1C | > 50 | > 50 | > 50 |
| COc1c(C)c(/C=C/C(=O)O)oc(=O)c1CO | > 50 | > 50 | > 50 |
| COc1c(CO)c(/C=C/C(=O)O)oc(=O)c1CO | > 50 | > 50 | > 50 |
| COC(=O)/C=C/c1oc(=O)c(COC(C)=O)c(OC)c1CO | 2.31 | 0.65 | 1.09 |
| COC(=O)/C=C/c1oc(=O)c(COC(C)=O)c(OC)c1COC(C)=O | 1.32 | 0.52 | 0.98 |
| O=c1[nH]cc(F)c(=O)[nH]1 [FLUOROURACIL] | 17 | 2.8 | 1.6 |
| COC(=O)/C=C/c1oc(=O)c(CO)c(OC)c1COC(C)=O | 9.84 | 1.04 | 5.9 |
| COC(=O)/C=C/c1oc(=O)c(CO)c(OC)c1CO | > 50 | > 50 | > 50 |
| COC(=O)C1C(c2oc(=O)c(CO)c(OC)c2CO)C(C(=O)OC)C1c1oc(=O)c(CO)c(OC)c1CO (stereo not drawn) | > 50 | > 50 | > 50 |
| COC(=O)C1C(c2oc(=O)c(COC(C)=O)c(OC)c2COC(C)=O)C(C(=O)OC)C1c1oc(=O)c(COC(C)=O)c(OC)c1COC(C)=O (stereo not drawn) |  | 4.56 |  |
